The values below are quoted from earlier work in patent US5674533A, “Pharmaceutical composition for the controlled release of moguisteine in a liquid suspension” (Recordati, S.A., Chemical And Pharmaceutical Company, priority 1994, dated 1997).

Series [1] concerns opioid receptors.
For series [2] the following is noted: in vivo.
For series [3] the following is noted: in humans.
Series [4] relates to rapidly adapting irritant receptors (RARs). The following applies: peripheral site of action.
The conditions of series [5]: for antitussive activity of enantiomers: R(+) vs S(-).
Test in series [6]: not given
The source holds these as a separate data set.

The structures appear in SMILES notation.

Turning to `CCOC(=O)CC(=O)N1CCSC1COc1ccccc1OC` (racemic) [moguisteine, (R,S)-2-[(2-methoxyphenoxy)methyl-3-ethoxycarbonyl-1-acetyl]-1,3-thiazolidine], the “solubility in aqueous fluids” value is on record as “relatively insoluble in aqueous fluids”. In addition, in series [1], the “action via opioid receptors” value is on record as “does not act via opioid receptors”. In addition, in series [2], the addiction result was “causes no addiction” and the “tolerability in high doses relative to codeine or dextromethorphan” value is listed as “better tolerated in high doses than codeine or dextromethorphan”. Besides, in series [3], the half-life after administration result was “less than one hour”. The “interaction with RARs” value in series [4] is recorded as “interacts with the so-called "rapidly adapting irritant receptors" (RARs)”. The “antitussive potency relative to codeine, dextromethorphan and zipripol” value in series [5] (in vivo) was “as potent as codeine, dextromethorphan and zipripol”. Moreover, the “antitussive potency relative to (D,L)-dropropizine” value in series [5] (vs (D,L)-dropropizine) is listed as 3-4 times more potent.

On to `COc1ccccc1OCC1SCCN1C(=O)CC(=O)O` (racemic) [active metabolite, (R,S)-2-[(methoxyphenoxy)methyl]-3-carboxyacetyl]-1,3 thiazolidine acid], for which the “presence in biological fluids in measurable quantities” value in series [6] (after oral or intravenous administration of moguisteine) is recorded as “only its active metabolite”. Further, the “rate of absorption relative to moguisteine” value in series [6] (oral) is on record as “five times slower than moguisteine”.

For the molecule `CCOC(=O)CC(=O)N1CCSC1COc1ccccc1OC` (single isomer, unassigned) [S(-) enantiomer], the “antitussive activity of enantiomers” value in series [5] is given as “equivalent antitussive activity”.

On to `COc1ccc2c3c1O[C@H]1[C@@H](O)C=C[C@H]4[C@@H](C2)N(C)CC[C@@]341` [Codeine], for which, in series [2], the addiction entry is “potentially causing addiction”.

In the case of `CCOC(=O)CC(=O)N1CCSC1COc1ccccc1OC` (single isomer, unassigned) [R(+) enantiomer], the “antitussive activity of enantiomers” value in series [5] is “equivalent antitussive activity”.
